Results taken from ChEMBL document CHEMBL6182876, “Design, synthesis and preliminary structure-activity relationship of 2-iminothiazolidine-4-one derivatives against Schistosoma japonicum in vitro and in vivo” (Eur J Med Chem, 2025).
The source made the active and inactive calls. The rule behind the calls is not given here.

Legend:
Schistosoma japonicum [1] = assay: Anti-schistosomal activity against adult Schistosoma japonicum assessed as worm mortality at 100 uM measured at 4 hrs relative to control; type: functional
Schistosoma japonicum [2] = assay: Anti-schistosomal activity against adult Schistosoma japonicum assessed as worm mortality at 100 uM measured at 8 hrs relative to control; type: functional
Schistosoma japonicum [3] = assay: Anti-schistosomal activity against adult Schistosoma japonicum assessed as worm mortality at 100 uM measured at 12 hrs relative to control; type: functional
Schistosoma japonicum [4] = assay: Anti-schistosomal activity against adult Schistosoma japonicum assessed as worm mortality at 100 uM measured at 24 hrs relative to control; type: functional
Schistosoma japonicum [5] = assay: Anti-schistosomal activity against adult Schistosoma japonicum assessed as worm mortality at 100 uM measured at 48 hrs relative to control; type: functional
Schistosoma japonicum [6] = assay: Anti-schistosomal activity against adult Schistosoma japonicum assessed as worm mortality at 100 uM measured at 72 hrs relative to control; type: functional
Schistosoma japonicum [7] = assay: Anti-schistosomal activity against adult Schistosoma japonicum measured at 72 hrs; type: functional, organism-based
Schistosoma japonicum [8] = assay: Anti-schistosomal activity against female adult Schistosoma japonicum assessed as loss of tegumental architecture at 25 uM measured after 72 hrs by SEM analysis; type: functional, organism-based
Schistosoma japonicum [9] = assay: Anti-schistosomal activity against male adult Schistosoma japonicum assessed as loss of tegumental architecture at 25 uM measured after 72 hrs by SEM analysis; type: functional, organism-based
Schistosoma japonicum [10] = assay: Anti-schistosomal activity against male adult Schistosoma japonicum assessed as appearance of intact tegument surface at 25 uM measured for 72 hrs by SEM analysis; type: functional, organism-based
Schistosoma japonicum [11] = assay: Anti-schistosomal activity against male adult Schistosoma japonicum assessed as appearance of sensory papillae at 25 uM measured for 72 hrs by SEM analysis; type: functional, organism-based
Schistosoma japonicum [12] = assay: Anti-schistosomal activity against male adult Schistosoma japonicum assessed as appearance of parallel wrinkles at 25 uM measured for 72 hrs by SEM analysis; type: functional, organism-based
Schistosoma japonicum [13] = assay: Anti-schistosomal activity against male adult Schistosoma japonicum assessed as surface destabilization at 25 uM measured for 72 hrs by SEM analysis; type: functional, organism-based
Schistosoma japonicum [14] = assay: Anti-schistosomal activity against male adult Schistosoma japonicum assessed as complete loss of sucker-associated muscular architecture at 25 uM measured for 72 hrs by SEM analysis; type: functional, organism-based
Schistosoma japonicum [15] = assay: Anti-schistosomal activity against male adult Schistosoma japonicum assessed as appearance of degradation of subtegumental matrix at 25 uM measured for 72 hrs by SEM analysis; type: functional, organism-based
Schistosoma japonicum [16] = assay: Anti-schistosomal activity against adult Schistosoma japonicum infected in ICR mouse assessed as number of worms at 25 mg/kg, ip administered for 7 days; type: functional; settings: time 7 day
Schistosoma japonicum [17] = assay: Anti-schistosomal activity against juvenile Schistosoma japonicum infected in ICR mouse assessed as number of worms at 25 mg/kg, ip administered for 7 days; type: functional; settings: time 7 day
Schistosoma japonicum [18] = assay: Anti-schistosomal activity against adult Schistosoma japonicum infected in ICR mouse assessed as reduction in worm burden at 25 mg/kg, ip administered for 7 days; type: functional; parameters: scale not given: the % may be the effect or the level left; settings: time 7 day
Schistosoma japonicum [19] = assay: Anti-schistosomal activity against juvenile Schistosoma japonicum infected in ICR mouse assessed as reduction in worm burden at 25 mg/kg, ip administered for 7 days; type: functional; parameters: scale not given: the % may be the effect or the level left; settings: time 7 day
Schistosoma japonicum [20] = assay: Anti-schistosomal activity against juvenile Schistosoma japonicum infected in ICR mouse assessed as somatic degeneration at 25 mg/kg, ip administered for 7 days; type: functional, organism-based; settings: time 7.0 day
[21] = Toxicity in ICR mouse infected with Schistosoma japonicum assessed as serum BUN level at 25 mg/kg, ip administered for 7 days; type: organism-based; settings: in vivo, 168 h, time 7 day
[22] = Acute toxicity in ICR mouse assessed as TBIL level at 1144 mg/kg, po administered for 7 days; type: organism-based; settings: in vivo, 168 h, time 7 day
[23] = Acute toxicity in ICR mouse assessed as AST level at 1144 mg/kg, po administered for 7 days; type: organism-based; settings: in vivo, 168 h, time 7 day
[24] = Acute toxicity in ICR mouse assessed as ALT level at 1144 mg/kg, po administered for 7 days; type: organism-based; settings: in vivo, 168 h, time 7 day
[25] = Acute toxicity in ICR mouse assessed as BUN level at 1144 mg/kg, po administered for 7 days; type: organism-based; settings: in vivo, 168 h, time 7 day
Schistosoma japonicum [26] = assay: Anti-schistosomal activity against adult Schistosoma japonicum assessed as muscle contractions at 50 uM incubated for 1 to 72 hrs by optical microscopic analysis; type: functional, organism-based; settings: time 1-72 hrs
Schistosoma japonicum [27] = assay: Anti-schistosomal activity against adult Schistosoma japonicum assessed as mortality by measuring body twisting at 50 uM incubated for 1 to 72 hrs by optical microscopic analysis; type: functional, organism-based; settings: time 1-72 hrs
Schistosoma japonicum [28] = assay: Anti-schistosomal activity against adult Schistosoma japonicum assessed as darkened body pigmentation at 50 uM incubated for 1 to 72 hrs by optical microscopic analysis; type: functional, organism-based; settings: time 1-72 hrs
Schistosoma japonicum [29] = assay: Anti-schistosomal activity against adult Schistosoma japonicum assessed as reduction in oviposition at 50 uM incubated for 72 hrs by optical microscopic analysis; type: functional, organism-based
Schistosoma japonicum [30] = assay: Anti-schistosomal activity against adult Schistosoma japonicum assessed as collapse of sucker musculature at 25 uM measured for 72 hrs by SEM analysis; type: functional, organism-based
Schistosoma japonicum [31] = assay: Anti-schistosomal activity against adult Schistosoma japonicum assessed as disintegration of tegument at 25 uM measured for 72 hrs by SEM analysis; type: functional, organism-based
Schistosoma japonicum [32] = assay: Anti-schistosomal activity against male adult Schistosoma japonicum assessed as disruption of tegument spines on the oral suckers at 25 uM measured for 72 hrs by SEM analysis; type: functional, organism-based
Schistosoma japonicum [33] = assay: Anti-schistosomal activity against juvenile Schistosoma japonicum infected in ICR mouse assessed as number of eggs in hepatocyte at 25 mg/kg, ip administered for 7 days; type: functional, organism-based; settings: time 7.0 day
Schistosoma japonicum [34] = assay: Anti-schistosomal activity against juvenile Schistosoma japonicum infected in ICR mouse assessed as cellular vacuolization at 25 mg/kg, ip administered for 7 days; type: functional, organism-based; settings: time 7.0 day
Schistosoma japonicum [35] = assay: Anti-schistosomal activity against juvenile Schistosoma japonicum infected in ICR mouse assessed as accumulation of inflammatory cells at 25 mg/kg, ip administered for 7 days; type: functional, organism-based; settings: time 7.0 day
[36] = Acute toxicity in po dosed ICR mouse assessed as lethal dose; type: organism-based; settings: in vivo
[37] = Acute toxicity in ICR mouse assessed as liver damage at 1144 mg/kg, po administered for 7 days by H and E staining based analysis; type: organism-based; settings: in vivo, 168 h, time 7 day

Row | SMILES | mortality at 100 µM (Schistosoma japonicum [1]) | mortality at 100 µM (Schistosoma japonicum [2]) | mortality at 100 µM (Schistosoma japonicum [3]) | mortality at 100 µM (Schistosoma japonicum [4]) | mortality at 100 µM (Schistosoma japonicum [5]) | mortality at 100 µM (Schistosoma japonicum [6]) | IC50 (Schistosoma japonicum [7]) | Activity (Schistosoma japonicum [8]) | Activity (Schistosoma japonicum [9]) | Activity (Schistosoma japonicum [10]) | Activity (Schistosoma japonicum [11]) | Activity (Schistosoma japonicum [12]) | Activity (Schistosoma japonicum [13]) | Activity (Schistosoma japonicum [14]) | Activity (Schistosoma japonicum [15]) | Activity (Schistosoma japonicum [16]) | Activity (Schistosoma japonicum [17]) | Activity (Schistosoma japonicum [18]) | Activity (Schistosoma japonicum [19]) | Activity [21] | also measured
1 | O=C(C1CCCCC1)N1CC(=O)N2CCc3ccccc3C2C1 (stereo not given) [PRAZIQUANTEL] | 100% | 100% | 100% | 100% | 100% | 100% | 43.8 µM | Active | Active | Active | Active | Active | Active | Active | Active | 7% | 22% | 86% | 49% | 22.1 mM | Activity (Schistosoma japonicum [20]): Active; Activity [22]: 3.76 µM; Activity [23]: 57 U/L; Activity [24]: 136 U/L; Activity [25]: 7.93 mM
2 | CCOC(=O)/C=C1\S/C(=N\c2ccccc2)N(CCN2CCCCC2)C1=O | 0% | 0% | 0% | 0% | 10% | 50% | > 100 µM |  |  |  |  |  |  |  |  |  |  |  |  |  | 
3 | CCOC(=O)/C=C1\S/C(=N\c2ccc(C(F)(F)F)cc2)N(CCCN2CCN(C)CC2)C1=O | 20% | 50% | 100% | 100% | 100% | 100% | 25.3 µM | Active | Active | Active | Active | Active | Active | Active | Active | 24% | 32% | 52% | 26% | 7.22 mM | Activity (Schistosoma japonicum [26]): Active; Activity (Schistosoma japonicum [27]): Active; Activity (Schistosoma japonicum [28]): Active; Activity (Schistosoma japonicum [29]): Active; Activity (Schistosoma japonicum [30]): Active; Activity (Schistosoma japonicum [31]): Active; Activity (Schistosoma japonicum [32]): Active; Activity (Schistosoma japonicum [33]): Active; Activity (Schistosoma japonicum [34]): Active; Activity (Schistosoma japonicum [35]): Active; LD50 [36]: 1400 mg/kg; Activity [37]: Non-toxic; Activity [22]: 3.24 µM; Activity [23]: 41 U/L; Activity [24]: 142 U/L; Activity [25]: 9.6 mM
4 | CCOC(=O)/C=C1\S/C(=N\c2ccccc2Cl)N(CCCN2CCN(C)CC2)C1=O | 10% | 40% | 100% | 100% | 100% | 100% | 30.4 µM |  |  |  |  |  |  |  |  | 37% | 30% | 26% | 30% | 7.9 mM | 
